The term EC50 denotes the concentration at which the effect is half-maximal.

For this assay, the system named is HT-29 cells. Nature of the assay: Cellular RIP1 inhibitory activity: necroptosis of HT-29 cells induced by TNF-α/SMAC mimetic/zVAD-FMK, CellTiter-Glo viability. As to conditions: Homo sapiens; HT-29 cells; TNF-α 10 ng/ml, SMAC mimetic 6 μM, zVAD-FMK 10 μM; 20 hours; geometric mean, 10 points, duplicates; read-out: EC50 (Cell activity; Necrosis or Necroptosis Inhibitory Activity). It is filed as cell-based. In short, it runs like this: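 HT-29 cells (~5,000/well) in FBS-free McCoy's 5A were driven into necroptosis with TNF-α (10 ng/ml), SMAC mimetic (6 μM) and zVAD-FMK (10 μM) alongside 10-point 1:3 compound dilutions for 20 h at 37 °C. Viability measured by CellTiter-Glo luminescence; geometric mean EC50 from duplicate dose-responses.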
(In general: ATP-based viability assays read luminescence as a measure of living cells.)
`O=C(c1nc(N2CCN(C(=O)N3N=CC[C@H]3c3cc(F)cc(F)c3)CC2)ncc1F)N1CC(OC(F)(F)F)C1` [Compound 60, (S)-(5-(3,5-difluorophenyl)-4,5-dihydro-1H-pyrazol-1-yl)(4-(5-fluoro-4-(3-(trifluoromethoxy)azetidine-1-carbonyl)pyrimidin-2-yl)piperazin-1-yl)methanone]: the EC50 fell in the range of 0.1 to 100 nM. As for `O=C(c1nc(N2CCN(C(=O)N3N=CC[C@H]3c3cc(F)cc(F)c3)CC2)ncc1F)N1CC=CC1` [Compound 61, (S)-(5-(3,5-difluorophenyl)-4,5-dihydro-1H-pyrazol-1-yl)(4-(4-(2,5-dihydro-1H-pyrrole-1-carbonyl)-5-fluoropyrimidin-2-yl)piperazin-1-yl)methanone], the figure is 0.1 to 100 nM; as for `COc1cnc(N2CCN(C(=O)N3N=CC[C@H]3c3cc(F)cc(F)c3)CC2)nc1C(N)=O` [Compound 62, (S)-2-(4-(5-(3,5-difluorophenyl)-4,5-dihydro-1H-pyrazole-1-carbonyl)piperazin-1-yl)-5-methoxypyrimidine-4-carboxamide], 100 to 1000 nM. Next, `COC1CN(C(=O)c2nc(N3CCN(C(=O)N4N=CC[C@H]4c4cc(F)cc(C#N)c4)CC3)ncc2Cl)C1` [Compound 63, (S)-3-(1-(4-(5-chloro-4-(3-methoxyazetidine-1-carbonyl)pyrimidin-2-yl)piperazin-1-carbonyl)-4,5-dihydro-1H-pyrazol-5-yl)-5-fluorobenzonitrile]: 0.1 to 100 nM; `COC1CN(C(=O)c2nc(N3CCN(C(=O)N4N=CC[C@H]4c4cncc(F)c4)CC3)ncc2Cl)C1` [Compound 64, (S)-(5-chloro-2-(4-(5-(5-fluoropyridin-3-yl)-4,5-dihydro-1H-pyrazole-1-carbonyl)piperazin-1-yl)pyrimidin-4-yl)(3-methoxyazetidin-1-yl)methanone]: 100 to 1000 nM.

`COC1CN(C(=O)c2nc(N3CCN(C(=O)N4N=CCC4c4cncc(Cl)c4)CC3)ncc2F)C1` (stereo not shown) [Compound 66, (5-(5-chloropyridin-3-yl)-4,5-dihydro-1H-pyrazol-1-yl)(4-(5-fluoro-4-(3-methoxyazetidine-1-carbonyl)pyrimidin-2-yl)piperazin-1-yl)methanone]: the EC50 lay in the range of 0.1 to 100 nM. As for `NC(=O)c1cc(N2CCN(C(=O)N3N=CC[C@H]3c3cc(F)cc(F)c3)CC2)c(F)cn1` [Compound 67, (S)-4-(4-(5-(3,5-difluorophenyl)-4,5-dihydro-1H-pyrazole-1-carbonyl)piperazin-1-yl)-5-fluoropicolinamide], the figure is 100 to 1000 nM.

The values above are taken from patent US12612388B2, “Receptor-interacting protein 1 inhibitors including piperazine heterocyclic amide ureas” (SIRONAX LTD., priority 2020, dated 2026).
